Tested on: LNCaP LCMT1 knockdown lines
Experiment: Colony formation and cell viability (cell titer glo) in LCMT1 knockdown prostate cancer cells
Format: cell-based, human
Conditions: colony formation (20 uM, 10-12 days) and cell viability (96 hours)

## CNC(=O)c1ccc(N2C(=S)N(c3ccc(C#N)c(C(F)(F)F)c3)C(=O)C2(C)C)cc1F [enzalutamide]
  effect of LCMT1 knockdown on response to enzalutamide: decreased sensitivity
